One data set concerns the target T1, HERG potassium channel (Homo sapiens, UniProt Q12809).
T1 construct: expressed in transfected cells; host or cells: HEK-293
The data set is classed as binding. As to the method: Cell paste of HEK-293 cells expressing the HERG product was suspended in 10-fold volume of 50 mM Tris buffer adjusted at pH 7.5 at 25° C. with 2 M HCl containing 1 mM MgCl2, 10 mM KCl. The cells were homogenized using a Polytron homogenizer (at the maximum power for 20 seconds) and centrifuged at 48,000 g for 20 minutes at 4° C. The pellet was resuspended, homogenized and centrifuged once more in the same manner. The resultant supernatant was discarded and the final pellet was resuspended (10-fold volume of 50 mM Tris buffer) and homogenized at the maximum power for 20 seconds. The membrane homogenate was aliquoted and stored at −80° C. until use. An aliquot was used for protein concentration determination using a Protein Assay Rapid Kit and ARVO SX plate reader (Wallac). […] Saturation was determined by incubating 20 μl of [^3H]-dofetilide and 160 μl of membrane homogenates (20-30 μg protein per well) for 60 min at room temperature in the absence or presence of 10 μM dofetilide at final concentrations (20 μl) for total or nonspecific binding, respectively. […] Receptor-bound radioactivity was quantified by liquid scintillation counting using Packard LS counter.
For the competition assay, compounds were diluted in 96 well polypropylene plates as 4-point dilutions in semi-log format. […] Receptor-bound radioactivity was quantified by counting Wallac MicroBeta plate counter.

The target in the next data set is T2, human ORL1 receptor (Homo sapiens, UniProt P41146).
T2 construct: purchased PerkinElmer; host or cells: HEK-293
T2 sequence (P41146 whole entry): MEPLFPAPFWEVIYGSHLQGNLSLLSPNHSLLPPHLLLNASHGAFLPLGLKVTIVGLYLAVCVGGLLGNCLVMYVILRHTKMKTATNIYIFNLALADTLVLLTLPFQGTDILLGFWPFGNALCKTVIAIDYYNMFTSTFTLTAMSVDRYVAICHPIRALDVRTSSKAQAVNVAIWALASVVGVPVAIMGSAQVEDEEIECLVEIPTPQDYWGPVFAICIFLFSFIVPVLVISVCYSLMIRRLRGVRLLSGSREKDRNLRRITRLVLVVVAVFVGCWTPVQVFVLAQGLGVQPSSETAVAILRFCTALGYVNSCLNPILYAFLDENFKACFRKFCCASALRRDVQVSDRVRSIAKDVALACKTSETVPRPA
Nature of the data set: ORL1-receptor binding assay ([3H]nociceptin, SPA). To be noted: human ORL1 receptor transfected HEK-293 cell membranes, 0.4 nM [3H]nociceptin. The protocol: The human ORL1 receptor transfected HEK-293 cell membranes (PerkinElmer) were incubated for 45 min at room temperature with 0.4 nM [^3H]nociceptin, 1.0 mg of wheat germ agglutinin(WGA)-coated SPA beads and various concentrations of test compounds in a final volume of 200 μL of 50 mM HEPES buffer pH 7.4 containing 10 mM MgCl2 and 1 mM EDTA. Non-specific binding (NSB) was determined by the addition of 1 μM unlabeled nociceptin. After the reaction, the assay plate was centrifuged at 1,000 rpm for 1 min and then the radioactivity was measured by WALLAC 1450 MicroBeta Trilux.
The compounds of the examples were tested in the ORL1 Receptor Binding assay.

SMILES strings stand for the structures.

T1 sequence (Q12809 whole entry): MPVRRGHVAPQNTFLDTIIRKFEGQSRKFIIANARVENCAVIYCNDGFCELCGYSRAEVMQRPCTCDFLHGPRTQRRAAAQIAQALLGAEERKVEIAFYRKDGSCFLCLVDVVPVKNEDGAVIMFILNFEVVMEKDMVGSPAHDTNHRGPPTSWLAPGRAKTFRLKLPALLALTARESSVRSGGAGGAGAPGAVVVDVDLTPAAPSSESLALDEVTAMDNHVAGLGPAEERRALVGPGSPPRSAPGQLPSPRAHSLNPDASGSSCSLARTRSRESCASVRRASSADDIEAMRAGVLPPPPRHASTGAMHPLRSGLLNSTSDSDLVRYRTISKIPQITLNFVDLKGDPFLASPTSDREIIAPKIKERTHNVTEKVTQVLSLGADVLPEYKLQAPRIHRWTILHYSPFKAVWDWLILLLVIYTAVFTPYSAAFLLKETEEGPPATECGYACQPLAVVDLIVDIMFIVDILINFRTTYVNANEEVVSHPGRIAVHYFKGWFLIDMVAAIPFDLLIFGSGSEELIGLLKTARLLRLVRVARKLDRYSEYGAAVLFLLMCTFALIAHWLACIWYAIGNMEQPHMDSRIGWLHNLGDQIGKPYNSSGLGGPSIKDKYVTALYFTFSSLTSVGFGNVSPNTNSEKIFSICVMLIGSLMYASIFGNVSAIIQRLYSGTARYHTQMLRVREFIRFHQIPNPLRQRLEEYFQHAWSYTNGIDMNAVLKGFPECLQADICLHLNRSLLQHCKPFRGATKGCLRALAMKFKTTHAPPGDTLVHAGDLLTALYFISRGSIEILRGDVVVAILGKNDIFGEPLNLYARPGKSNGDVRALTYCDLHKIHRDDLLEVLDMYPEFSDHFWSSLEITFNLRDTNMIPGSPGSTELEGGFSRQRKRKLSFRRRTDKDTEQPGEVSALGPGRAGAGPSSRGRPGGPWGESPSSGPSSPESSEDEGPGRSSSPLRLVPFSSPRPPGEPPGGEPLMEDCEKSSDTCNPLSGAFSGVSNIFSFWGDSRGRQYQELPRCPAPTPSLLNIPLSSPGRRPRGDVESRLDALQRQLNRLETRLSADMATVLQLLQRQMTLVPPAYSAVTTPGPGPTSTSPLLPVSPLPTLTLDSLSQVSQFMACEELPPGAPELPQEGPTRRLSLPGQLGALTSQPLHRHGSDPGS

On to `CN1C(=O)C(CN2CCC3(CCc4ccccc43)CC2)Cc2ccccc21` (stereo not drawn) [Compound (i)], for which, at HERG potassium channel, the “activity in the dofetilide binding assay” value is “potent activity” and the “predicted HERG potassium channel inhibitory activity” value is on record as “high”.
For the molecule `O=C(O)C(Cc1ccccc1Cl)CN1C2CCC1CC1(C2)OCCc2cc(F)ccc21` (stereo not drawn) [Example 7, 2-(2-Chlorobenzyl)-3-(6′-fluoro-3′,4′-dihydro-8H-spiro[8-azabicyclo[3.2.1]octane-3,1′-isochromen]-8-yl)propanoic acid], on human ORL1 receptor, affinity was put at a Ki of 1.3 nM.
Same read-out and setting: the figure for `O=C(O)C(Cc1ccccc1Cl)CN1C2CCC1CC1(C2)OCc2ccc(F)cc21` (stereo not drawn) [Example 8, 2-(2-Chlorobenzyl)-3-(6′-fluoro-3′H,8H-spiro[8-azabicyclo[3.2.1]octane-3,1′-[2]benzofuran]-8-yl)propanoic acid] is 3.4 nM; for `O=C(O)C(Cc1cc(O)ccc1Cl)CN1C2CCC1CC1(C2)OCCc2cc(F)ccc21` (stereo not drawn) [Example 9, 2-(2-Chloro-5-hydroxybenzyl)-3-(6′-fluoro-3′,4′-dihydro-8H-spiro[8-azabicyclo[3.2.1]octane-3,1′-isochromen]-8-yl)propanoic acid] it is 1.2 nM.
On the same count and under the same terms, the figure for `O=C(O)C(Cc1cc(O)ccc1Cl)CN1C2CCC1CC1(C2)OCc2ccc(F)cc21` (stereo not drawn) [Example 10, 2-(2-Chloro-5-hydroxybenzyl)-3-(6′-fluoro-3′H,8H-spiro[8-azabicyclo[3.2.1]octane-3,1′-[2]benzofuran]-8-yl)propanoic acid] is 3.3 nM.

Source of the values: patent US20080207665A1, “Alpha-(Aryl-or Heteroaryl-Methyl)-Beta-Piperidinopropanoic Acid Compounds as Orl-1-Receptor Antagonists” (Pfizer Inc., priority 2005, published 2008).
